Source: US20070185122A1, “Use of efletirizine for treating persistent allergic rhinitis” (priority 2003, published 2007)

Assays:
histamine H1-receptor = histamine H1-receptor (Homo sapiens, UniProt P35367); test: in vitro affinity and selectivity for H1-receptors; type: binding
[1] = tested on: persistent allergic rhinitis; test: clinical study of efletirizine dihydrochloride in persistent allergic rhinitis (T5SS, RQLQ, SF-36), placebo-controlled; type: in vivo, adult patients; settings: patients with persistent allergic rhinitis
Excerpt: A study relative to the clinical effect of efletirizine dihydrochloride is planed to establish on the intention to treat (ITT population) whether an approximately 6 month efletirizine treatment can improve the quality of life and clinical symptoms from adult patients suffering from persistent allergic rhinitis, when compared to placebo.
Secondary parameters of efficacy include different durations of treatment, different symptoms, different quality of life questionnaires, the incidence of co-morbidities suspected to be linked to allergic rhinitis and pharmaco-economic variables. The safety of this long-term treatment with efletirizine is also evaluated.
The target population of this study consists of adults aged more than 18 years suffering from persistent allergic rhinitis [WHO Initiative on Allergic Rhinitis and its Impact on Asthma (ARIA), 2000, pages S147-S149]. To be enrolled, the subjects need to have sufficient rhinitis symptoms during the selection period. Excluded are patients with ENT (Ear-Nose-Throat) or eye infection preceding initial visit. […]
The severity of clinical symptoms is rated by the T5SS (sneezing, rhinorrhea, nasal pruritus, ocular pruritus and nasal congestion) evaluated each by a score from 0 to 3 each day. The impact on health related quality of life is measured using the Rhinoconjunctivitis Quality of Life Questionnaire (RQLQ, SF36) (E. JUNIPER and G. H. GUYATT, Development and testing of a new measure of health status for clinical trials in rhinoconjunctivitis, Clinical and Experimental Allergy 1991; 21:77-83; E. JUNIPER, Measuring Health Related Quality of Life in rhinitis, J. Allergy Clin. Immunol. 1997; 99:S742-9). […]
At each of the visits, diary book entries (T5SS, RQLQ, SF-36, indirect cost pharmaco-economic parameters, concomitant medication, outpatient consultations and adverse events) are verified and transferred into the Clinical Record Form and direct cost pharmaco-economic parameters will be recorded. […]
Adverse events are recorded by the patients on diary cards and discussed with the investigator at each visit. […]

Sequence of histamine H1-receptor (P35367 whole entry, species assumed): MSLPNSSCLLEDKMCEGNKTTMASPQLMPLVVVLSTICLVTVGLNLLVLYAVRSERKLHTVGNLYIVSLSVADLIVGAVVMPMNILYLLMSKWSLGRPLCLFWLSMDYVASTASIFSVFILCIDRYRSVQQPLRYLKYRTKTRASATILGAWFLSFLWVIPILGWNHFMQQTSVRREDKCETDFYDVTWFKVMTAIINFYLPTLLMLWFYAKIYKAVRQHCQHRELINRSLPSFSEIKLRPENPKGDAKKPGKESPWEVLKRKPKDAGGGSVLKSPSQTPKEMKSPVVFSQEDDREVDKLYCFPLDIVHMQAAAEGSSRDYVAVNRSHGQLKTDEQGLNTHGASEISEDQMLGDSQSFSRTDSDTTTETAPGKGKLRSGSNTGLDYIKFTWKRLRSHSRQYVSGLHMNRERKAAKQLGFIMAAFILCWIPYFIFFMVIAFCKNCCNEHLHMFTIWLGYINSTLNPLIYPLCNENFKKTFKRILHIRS

Row | affinity for H1-receptors (histamine H1-receptor) | SMILES | duration of effect on persistent rhinitis [1] | duration of effect on quality of life [1] | effect on nasal congestion [1]
1 | high affinity | O=C(O)COCCN1CCN(C(c2ccc(F)cc2)c2ccc(F)cc2)CC1 [Efletirizine, 2-[2-[4-[Bis(4-fluorophenyl)methyl]-1-piperazinyl]ethoxy]acetic acid] |  |  | 
2 |  | Cl.Cl.O=C(O)COCCN1CCN(C(c2ccc(F)cc2)c2ccc(F)cc2)CC1 [efletirizine dihydrochloride] | more than 4 weeks | more than 4 weeks | has an effect on nasal congestion
